Test results: publication PMC8556439, “Modeling the time course of ComX: towards molecular process control for Bacillus wild-type cultivations” (AMB Express, 2021)

Legend:
extracellular proteases = test: ComX extracellular degradation in cell-free supernatant of bioreactor cultivation; format: in vitro ADME, B. subtilis DSM 10T; settings: spectinomycin 100 µg/mL, incubated 120 rpm, 37 °C, sampled 0-8 h, ComX bioassay, biological duplicates
Procedure: (§1) Due to the high complexity of ComX purification, the pheromone was measured with a bioassay based on the principle provided by Magnuson et al. ([1994]). Thereby, reporter strain CT2 (∆comX::kan; PsrfA-lacZ) can be used as an assay reagent and a ComX-dependent expression of lacZ can be determined by measuring the β-galactosidase activity with the Miller assay (Miller [1972]). The employed bioassay is further in line with a recently published method, provided by Dogsa et al. ([2021]). A detailed description of the working principle and further validation experiments are given in the supplementary information. In brief, a main culture of strain CT2 was inoculated with preculture II to a starting OD600 of 0.1 and incubated for 3 h at 120 rpm and 37 °C. […] Bnk values were measured using the respective sterile cultivation medium instead of sampled cell-free supernatant. The limit of detection (LOD) and limit of quantification (LOQ) was calculated from 20 samples using Eqs. […]
Cell-free supernatant was obtained from bioreactor cultivation with 40 g/L glucose by two centrifugation steps for 30 min at 4816 g and 4 °C (Heraeus X3R, Thermo Fisher Scientific GmbH, Braunschweig, Germany). […] Samples were taken after t = 0, 1, 2, 3, 4, 6 and 8 h and analyzed for ComX and peptidase activity and the ComX degradation rate in (MU/h) was calculated from the measured data.

[1] = format: physicochemical; settings: pH 7
Procedure: as §1
(§2) For autodegradation studies, strain DSM 10^ T was additionally cultivated in 3000 mL shake flasks using MSM with 40 g/L glucose. […] The incubation was performed in biological duplicates for 24 h at 120 rpm and 37 °C and samples were taken regularly and analyzed for OD600, ComX and peptidase activity.

[2] = test system: B. subtilis BKK31700 (∆comX); test: ComX intracellular degradation: ComX deficient strain cultivated in spent medium; format: in vitro ADME; settings: ComX bioassay, biological duplicates
Procedure: as §1, §2

PsrfA = settings: ref Magnuson et al. [1994], Okada et al. [2005], [2007], Dogsa et al. [2021], cited from earlier work
Procedure: (§3) To allow for this optimization strategy, profound quantitative knowledge must be gathered as an initial step. This was done in the presented study regarding surfactin production and ComX pheromone progression, providing new insights into this crosstalk. Several bioreactor batch fermentations with different initial glucose concentrations were performed to illustrate different lengths of growth phases of B. subtilis DSM 10^ T. Thereby the general progression of ComX activity was consistent for all bioreactor set-ups, regardless of varying experimental set-ups. During exponential growth, an initi ...

[3] = cited from earlier work
Procedure: The LC–MS analysis of extracellular ComX also confirmed degradation after reaching a peak during cultivation process, which was also detected by the bioassay (Additional file 1: Figure S2a). Resembling Henkel et al. ([2013]), experiments were performed with respect to (i) autodegradation, (ii) extracellular degradation and (iii) intracellular degradation (Fig. 1), to obtain deeper understanding of the degradation kinetics of ComX. […] Here, an increase in EACSP was initially observed and, after reaching a maximum, a slight downward trend was seen, which was also accompanied by calculated degradation rates. The highest modeled EACSP = 66.3 ∆A/(h·mL) was reached after 20.5 h, which is concomitant to the highest measured degradation rate after 16 h. […] However, to unveil a potential autodegradation effe ... || To allow for this optimization strategy, profound quantitative knowledge must be gathered as an initial step. This was done in the presented study regarding surfactin production and ComX pheromone progression, providing new insights into this crosstalk. Several bioreactor batch fermentations with different initial glucose concentrations were performed to illustrate different lengths of growth phases of B. subtilis DSM 10^ T. Thereby the general progression of ComX activity was consistent for all bioreactor set-ups, regardless of varying experimental set-ups. During exponential growth, an initi ...

[4] = ref Rangarajan and Clarke [2015]; cited from earlier work
Procedure: as §3

Substance | ComX degradation rate (highest) (extracellular proteases; cell-free supernatant from bioreactor cultivation 40 g/L glucose taken after approximately 16 h) [MU/h] | ComX degradation rate (extracellular proteases; cell-free supernatant from bioreactor cultivation 40 g/L glucose taken after approximately 35 h) [MU/h] | remaining ComX activity after 8 h of incubation (autodegradation study) [1] [MU] | ComX activity remaining after 24 h of cultivation (intracellular degradation study) ([2]; BKK31700 cells in spent filtered medium of DSM 23778, 4 g/L glucose added, 24 h, 120 rpm, 37 °C) [MU] | initial ComX activity at t0 (intracellular degradation study) ([2]; washed BKK31700 cells resuspended in spent filtered medium of DSM 23778, 4 g/L glucose added) [MU] | ComX concentration at saturation of response (PsrfA) | EC50 (PsrfA; read-out: ComX concentration at half maximum response) [nM] | heat stability of ComX (time stable) ([3]; at 80 °C, ref Magnuson et al. ([1994])) [h] | sensitivity of ComX to extracellular proteases ([3]; especially serine proteases, ref Spacapan et al. ([2018]) and Magnuson et al. ([1994])) | storage time after which a degradation effect was observed ([3]; purified ComX, storage, ref Dogsa et al. ([2021])) [days] | stability of ComX in acidic environments ([3]; ref Okada et al. [2007]) | pH at which surfactin precipitation may occur [4] [pH]
ADPITRQ WGD [ComX, quorum sensing pheromone of B. subtilis, farnesylated peptide secreted into culture supernatant; not purified, measured in supernatant] | 9.2 ± 2.1 | 8.4 ± 0.5 | 251.1 ± 17.1 | 103.2 ± 11.4 | 96.5 ± 3.0 | around 10 nM | 3 to 4 | 12 | sensitive to extracellular proteases | 100 | does not appear to be stable | 
surfactin |  |  |  |  |  |  |  |  |  |  |  | 5.0 to 6.0
